Experimental data as given in publication PMC5421785, “Citrullination only infrequently impacts peptide binding to HLA class II MHC” (PLoS ONE, 2017).
Like-named read-outs stand apart in the source and are kept apart here. Values belong to the compound of their own block, whether it stands above or below them. Square brackets hold non-standard residues; d marks the D form. Ends that are not written are not given here. Peptide text beside a SMILES is read from it. Cit = NC(=O)NCCC[C@H](N)C(=O)O

Tests used:
[1] = target: T1, HLA-DRB1*04:01 (Homo sapiens, UniProt P01903+P01911, A100K/A169T/F76Y/I96L/K127E/L162R/M171V/N62H/P40V/Q125Y/R42H/S133A/S149N/S66Y/V115G/V209L/W38E); assay: HLA class II peptide binding, inhibition of radiolabeled peptide binding to purified MHC
T1 construct: EBV transformed homozygous cell lines were used as sources of MHC molecules; endogenous in cells; host or cells: EBV transformed homozygous cell lines

[2] = target: T2, HLA-DRB1*01:01 (Homo sapiens, UniProt P01903+P01911, A100R/D57E/F55L/F60I/F76Y/I96L/L162R/M171V/P40L/Q125E/R42F/V115G/Y59C); assay: as above
T2 construct: EBV transformed homozygous cell lines were used as sources of MHC molecules; endogenous in cells; host or cells: EBV transformed homozygous cell lines

[3] = wild-type (unmodified Arg) 15-mer peptide, purified HLA-DRB1*04:01, read-out: DRB1*04:01 binding capacity, WT peptide (IC50 nM)
[4] = wild-type (unmodified Arg) 15-mer peptide, purified HLA-DRB1*01:01, read-out: DRB1*01:01 binding capacity, WT peptide (IC50 nM)
[5] = citrullinated 15-mer peptide (X = citrulline), purified HLA-DRB1*04:01, read-out: DRB1*04:01 binding capacity, Cit peptide (IC50 nM)
[6] = citrullinated 15-mer peptide (X = citrulline), purified HLA-DRB1*01:01, read-out: DRB1*01:01 binding capacity, Cit peptide (IC50 nM)
[7] = read-out: DRB1*04:01 binding capacity, WT peptide (IC50 nM)
[8] = read-out: DRB1*01:01 binding capacity, WT peptide (IC50 nM)
[9] = citrullinated 15-mer (X), purified MHC, inhibition of radiolabeled peptide binding, dash = IC50 >40,000 nM, read-out: DRB1*04:01 binding capacity, Cit peptide (IC50 nM)
[10] = citrullinated 15-mer (X), purified MHC, inhibition of radiolabeled peptide binding, dash = IC50 >40,000 nM, read-out: DRB1*01:01 binding capacity, Cit peptide (IC50 nM)

IC50 [1, 3]: 6020 nM
IC50 [2, 4]: 826 nM
Compound: TLLIKTVETRDGQVI [Vimentin 441 WT]

IC50 [1, 5]: 8410 nM
IC50 [2, 6]: 646 nM
Compound: CC[C@H](C)[C@H](NC(=O)[C@H](CCCNC(N)=O)NC(=O)[C@H](CO)NC(=O)[C@H](CCC(=O)O)NC(=O)[C@H](CCC(=O)O)NC(=O)CN)C(=O)N[C@@H](CO)C(=O)N[C@@H](CC(C)C)C(=O)N1CCC[C@H]1C(=O)N[C@@H](CC(C)C)C(=O)N1CCC[C@H]1C(=O)N[C@@H](CC(N)=O)C(=O)N[C@@H](Cc1ccccc1)C(=O)N[C@@H](CO)C(=O)N[C@@H](CO)C(=O)O [GEESXISLPLPNFSS] (H-GEES[Cit]ISLPLPNFSS-OH)

IC50 [1, 7]: > 40000 nM
IC50 [2, 8]: 3070 nM
Compound: CC[C@H](C)[C@H](NC(=O)[C@H](Cc1ccc(O)cc1)NC(=O)[C@H](CC(N)=O)NC(=O)[C@H](C)NC(=O)[C@H](Cc1ccccc1)NC(=O)[C@H](CCCNC(=N)N)NC(=O)[C@H](CC(=O)O)NC(=O)[C@H](CC(N)=O)NC(=O)[C@H](CC(C)C)NC(=O)[C@H](CCC(=O)O)NC(=O)[C@H](CCC(N)=O)NC(=O)[C@H](CC(C)C)NC(=O)[C@@H](N)CCC(=O)O)C(=O)N[C@@H](CC(=O)O)C(=O)N[C@@H](CCCCN)C(=O)O [Vimentin 106 WT]

IC50 [1, 5]: > 40000 nM
IC50 [2, 6]: 109 nM
Compound: CC(C)C[C@H](NC(=O)CNC(=O)[C@@H]1CCCN1)C(=O)N[C@@H](CCCNC(N)=O)C(=O)NCC(=O)N[C@@H](CC(C)C)C(=O)N1CCC[C@H]1C(=O)NCC(=O)N[C@@H](CCCCN)C(=O)N[C@@H](CC(=O)O)C(=O)NCC(=O)N[C@@H](CCC(=O)O)C(=O)N[C@H](C(=O)NCC(=O)N[C@@H](C)C(=O)O)[C@@H](C)O [PGLXGLPGKDGETGA] (H-PGL[Cit]GLPGKDGETGA-OH)

IC50 [1, 3]: > 40000 nM
IC50 [2, 4]: 904 nM
Compound: TNLDSLPLVDTHSKR [Vimentin 426 WT]

IC50 [1, 9]: 974 nM
IC50 [2, 10]: 60 nM
Compound: CSCC[C@H](NC(=O)[C@H](CCCNC(N)=O)NC(=O)[C@H](CCCNC(=N)N)NC(=O)[C@H](Cc1ccc(O)cc1)NC(=O)[C@H](CO)NC(=O)[C@H](CO)NC(=O)[C@H](CO)NC(=O)[C@H](CO)NC(=O)[C@@H](N)C(C)C)C(=O)N[C@@H](Cc1ccccc1)C(=O)NCC(=O)NCC(=O)N1CCC[C@H]1C(=O)NCC(=O)N[C@H](C(=O)O)[C@@H](C)O [VSSSSYRXMFGGPGT] (H-VSSSSYR[Cit]MFGGPGT-OH)

IC50 [1, 3]: > 40000 nM
IC50 [2, 4]: 431 nM
Compound: TGFPGAAGRVGPPGS [Collagen 896 WT]

IC50 [1, 3]: > 40000 nM
IC50 [2, 4]: 31000 nM
Compound: PTGKQGDRGEAGAQG [Collagen 1081 WT]

IC50 [1, 9]: 803 nM
IC50 [2, 10]: 25 nM
Compound: CC(C)C[C@H](NC(=O)[C@H](C)NC(=O)[C@H](CO)NC(=O)CN)C(=O)N[C@@H](CCCNC(=N)N)C(=O)N1CCC[C@H]1C(=O)N[C@@H](CO)C(=O)N[C@H](C(=O)N[C@@H](CO)C(=O)N[C@@H](CCCNC(N)=O)C(=O)N[C@@H](CO)C(=O)N[C@@H](CC(C)C)C(=O)N[C@@H](Cc1ccc(O)cc1)C(=O)N[C@@H](C)C(=O)N[C@@H](CO)C(=O)O)[C@@H](C)O [GSALRPSTSXSLYAS]

IC50 [1, 7]: 18800 nM
IC50 [2, 8]: 7850 nM
Compound: DNASLARLDLERKVE [Vimentin 211 WT]

IC50 [1, 5]: 6020 nM
IC50 [2, 6]: 310 nM
Compound: CC[C@H](C)[C@H](NC(=O)[C@H](CC(C)C)NC(=O)[C@H](CC(C)C)NC(=O)[C@@H](NC(=O)[C@H](CCCNC(=N)N)NC(=O)[C@H](CCCCN)NC(=O)[C@H](CO)NC(=O)[C@H](Cc1c[nH]cn1)NC(=O)[C@@H](N)[C@@H](C)O)[C@@H](C)O)C(=O)N[C@@H](CCCCN)C(=O)N[C@H](C(=O)N[C@H](C(=O)N[C@@H](CCC(=O)O)C(=O)N[C@H](C(=O)N[C@@H](CCCNC(N)=O)C(=O)O)[C@@H](C)O)C(C)C)[C@@H](C)O [THSKRTLLIKTVETX] (H-THSKRTLLIKTVET[Cit]-OH)

IC50 [1, 9]: 6330 nM
IC50 [2, 10]: 25300 nM
Compound: CC(C)C[C@H](NC(=O)[C@@H](NC(=O)[C@H](CC(N)=O)NC(=O)[C@H](CCC(=O)O)NC(=O)[C@H](C)NC(=O)[C@H](CCC(=O)O)NC(=O)[C@H](CCC(=O)O)NC(=O)[C@@H](N)CCCNC(N)=O)[C@@H](C)O)C(=O)N[C@@H](CCC(N)=O)C(=O)N[C@@H](CO)C(=O)N[C@@H](Cc1ccccc1)C(=O)N[C@@H](CCCNC(=N)N)C(=O)N[C@@H](CCC(N)=O)C(=O)N[C@@H](CC(=O)O)C(=O)N[C@H](C(=O)O)C(C)C [XEEAENTLQSFRQDV] (H-[Cit]EEAENTLQSFRQDV-OH)
